# ChEMBL document CHEMBL1201862, “PubChem BioAssay data set” (2004)
#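 48-hour exposure; five concentrations; linearly interpolated endpoints. GI50 is the concentration that inhibits growth by half.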 Calls of active or inactive are those of the source. Rule as the data show it: active = GI50 up to about 1.1 µM and inactive = higher.
# How the values were obtained:
# Assay in all cases: growth of human tumour cells (NCI), 48 h
# HT-29 = test system: HT-29
# SK-MEL-28 = test system: SK-MEL-28
# RPMI-8226 = test system: RPMI-8226
# Malme-3M = test system: Malme-3M
# Hs-578T = test system: Hs-578T
# OVCAR-5 = test system: OVCAR-5
# SK-MEL-5 = test system: SK-MEL-5
# DMS-273 = test system: DMS-273
# MDA-N = test system: MDA-N
# IGROV-1 = test system: IGROV-1
# SF-295 = test system: SF-295
# UACC-62 = test system: UACC-62
# RXF 393 = test system: RXF 393
# CCRF-CEM = test system: CCRF-CEM
# SF-268 = test system: SF-268
# SW-620 = test system: SW-620
# NCI-H522 = test system: NCI-H522
# A498 = test system: A498
# LOX IMVI = test system: LOX IMVI
smiles,measurement,setting,value
C/C(=N\NC(=S)N1CCC(N2CCCCC2)CC1)c1ccccn1,GI50,HT-29,3170 nM (inactive)
same,GI50,SK-MEL-28,4120 nM (inactive)
same,GI50,RPMI-8226,2200 nM (inactive)
same,GI50,Malme-3M,> 100000 nM (inactive)
same,GI50,Hs-578T,4720 nM (inactive)
same,GI50,OVCAR-5,4110 nM (inactive)
same,GI50,SK-MEL-5,2660 nM (inactive)
same,GI50,DMS-273,2810 nM (inactive)
same,GI50,MDA-N,2490 nM (inactive)
same,GI50,IGROV-1,3540 nM (inactive)
same,GI50,SF-295,2280 nM (inactive)
same,GI50,UACC-62,3330 nM (inactive)
same,GI50,RXF 393,1360 nM (inactive)
same,GI50,CCRF-CEM,661 nM (active)
same,GI50,SF-268,3680 nM (inactive)
same,GI50,SW-620,3100 nM (inactive)
same,GI50,NCI-H522,< 10 nM (active)
same,GI50,A498,2370 nM (inactive)
same,GI50,LOX IMVI,2820 nM (inactive)
